Holding throughout (assay type): binding
The target in assay [1] is T1, kinases (KINOMEscan panel) (Homo sapiens, UniProt Q16832).
T1 sequence (Q16832 22-855): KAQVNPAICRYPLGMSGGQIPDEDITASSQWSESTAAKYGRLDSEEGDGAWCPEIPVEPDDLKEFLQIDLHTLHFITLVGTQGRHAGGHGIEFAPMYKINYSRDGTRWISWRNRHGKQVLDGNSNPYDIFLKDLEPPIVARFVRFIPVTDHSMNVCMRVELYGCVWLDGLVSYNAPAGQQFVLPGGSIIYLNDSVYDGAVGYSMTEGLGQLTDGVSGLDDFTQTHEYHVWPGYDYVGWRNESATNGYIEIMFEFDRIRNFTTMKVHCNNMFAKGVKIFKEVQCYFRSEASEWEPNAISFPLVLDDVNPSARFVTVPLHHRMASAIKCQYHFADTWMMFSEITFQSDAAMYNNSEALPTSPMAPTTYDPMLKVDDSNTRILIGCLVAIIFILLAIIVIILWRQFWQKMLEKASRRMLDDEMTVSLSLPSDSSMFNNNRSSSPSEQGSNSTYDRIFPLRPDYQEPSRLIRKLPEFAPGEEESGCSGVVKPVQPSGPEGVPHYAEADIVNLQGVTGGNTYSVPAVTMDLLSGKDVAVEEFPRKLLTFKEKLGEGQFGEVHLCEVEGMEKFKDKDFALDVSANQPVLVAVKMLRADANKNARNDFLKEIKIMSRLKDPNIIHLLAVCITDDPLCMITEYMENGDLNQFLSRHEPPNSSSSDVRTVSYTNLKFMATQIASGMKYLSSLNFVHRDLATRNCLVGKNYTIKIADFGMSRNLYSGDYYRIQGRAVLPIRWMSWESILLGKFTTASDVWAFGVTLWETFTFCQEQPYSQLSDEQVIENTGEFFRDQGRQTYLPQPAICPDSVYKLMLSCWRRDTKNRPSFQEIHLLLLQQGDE
The conditions noted are these: DDR2; NEW KINOMEscan.

For assay [2], the target named is kinases (KINOMEscan panel) (Homo sapiens, UniProt P10721, A829P). The conditions noted are these: NEW KINOMEscan.
Chain of kinases (KINOMEscan panel) (Homo sapiens, UniProt P10721, A829P) (P10721 26-976 A829P): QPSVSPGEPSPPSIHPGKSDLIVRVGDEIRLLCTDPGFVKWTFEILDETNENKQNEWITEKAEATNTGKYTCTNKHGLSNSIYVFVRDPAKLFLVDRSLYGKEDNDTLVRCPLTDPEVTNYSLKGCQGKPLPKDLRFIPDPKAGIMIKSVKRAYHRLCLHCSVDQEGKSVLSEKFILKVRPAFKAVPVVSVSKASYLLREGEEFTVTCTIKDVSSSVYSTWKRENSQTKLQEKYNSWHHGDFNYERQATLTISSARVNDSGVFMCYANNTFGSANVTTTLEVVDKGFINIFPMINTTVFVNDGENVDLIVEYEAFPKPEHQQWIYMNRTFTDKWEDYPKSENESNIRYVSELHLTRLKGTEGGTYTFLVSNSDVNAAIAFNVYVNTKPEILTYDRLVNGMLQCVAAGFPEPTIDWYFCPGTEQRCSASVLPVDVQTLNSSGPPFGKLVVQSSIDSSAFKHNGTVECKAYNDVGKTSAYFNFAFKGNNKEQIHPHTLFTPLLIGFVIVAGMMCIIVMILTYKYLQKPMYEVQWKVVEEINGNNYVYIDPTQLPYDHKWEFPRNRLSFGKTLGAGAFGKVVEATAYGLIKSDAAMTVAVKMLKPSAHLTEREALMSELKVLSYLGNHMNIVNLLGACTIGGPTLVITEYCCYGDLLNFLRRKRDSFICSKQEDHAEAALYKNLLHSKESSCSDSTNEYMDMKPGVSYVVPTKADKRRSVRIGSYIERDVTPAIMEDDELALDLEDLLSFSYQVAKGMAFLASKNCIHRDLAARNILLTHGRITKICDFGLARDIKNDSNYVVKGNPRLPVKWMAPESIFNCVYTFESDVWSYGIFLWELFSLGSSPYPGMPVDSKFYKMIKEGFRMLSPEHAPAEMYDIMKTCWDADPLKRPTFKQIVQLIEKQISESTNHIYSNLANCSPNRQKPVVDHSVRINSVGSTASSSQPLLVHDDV
Assay [3] has as its target T2, kinases (KINOMEscan panel) (Homo sapiens, UniProt Q9UL54).
T2 sequence (Q9UL54 1-1235): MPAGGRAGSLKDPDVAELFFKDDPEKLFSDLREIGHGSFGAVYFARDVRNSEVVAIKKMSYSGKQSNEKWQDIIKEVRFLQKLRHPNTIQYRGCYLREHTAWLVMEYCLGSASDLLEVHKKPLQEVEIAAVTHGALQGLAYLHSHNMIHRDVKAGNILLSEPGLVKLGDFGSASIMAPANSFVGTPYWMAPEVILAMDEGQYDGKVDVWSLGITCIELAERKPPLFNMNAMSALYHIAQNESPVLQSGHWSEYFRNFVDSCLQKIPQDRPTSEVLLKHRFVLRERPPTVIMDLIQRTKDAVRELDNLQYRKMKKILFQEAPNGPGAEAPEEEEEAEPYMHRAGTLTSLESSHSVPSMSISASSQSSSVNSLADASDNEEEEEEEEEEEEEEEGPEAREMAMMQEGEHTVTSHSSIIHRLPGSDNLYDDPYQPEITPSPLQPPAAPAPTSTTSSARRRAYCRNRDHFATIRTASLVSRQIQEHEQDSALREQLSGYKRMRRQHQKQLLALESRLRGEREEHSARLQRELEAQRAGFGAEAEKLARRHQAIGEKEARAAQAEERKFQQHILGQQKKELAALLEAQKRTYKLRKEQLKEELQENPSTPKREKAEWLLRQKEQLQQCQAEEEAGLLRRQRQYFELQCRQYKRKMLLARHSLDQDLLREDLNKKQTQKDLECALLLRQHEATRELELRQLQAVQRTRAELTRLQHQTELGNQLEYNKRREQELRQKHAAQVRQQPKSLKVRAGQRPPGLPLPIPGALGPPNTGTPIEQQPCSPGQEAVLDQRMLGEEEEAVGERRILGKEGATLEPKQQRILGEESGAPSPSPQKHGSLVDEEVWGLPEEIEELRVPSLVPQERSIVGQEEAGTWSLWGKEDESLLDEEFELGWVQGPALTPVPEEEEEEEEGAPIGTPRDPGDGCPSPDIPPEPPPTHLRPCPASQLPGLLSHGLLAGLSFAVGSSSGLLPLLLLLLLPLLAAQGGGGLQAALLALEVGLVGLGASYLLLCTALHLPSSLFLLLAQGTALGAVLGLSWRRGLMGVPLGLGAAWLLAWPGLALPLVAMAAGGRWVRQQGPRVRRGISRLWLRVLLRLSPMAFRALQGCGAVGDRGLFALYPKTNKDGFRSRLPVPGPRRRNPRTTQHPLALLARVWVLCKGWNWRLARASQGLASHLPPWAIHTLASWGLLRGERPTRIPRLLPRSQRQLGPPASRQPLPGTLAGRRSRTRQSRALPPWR
The conditions noted are these: kinase TAOK2; NEW KINOMEscan.

For assay [4], the target named is kinases (KINOMEscan panel) (Homo sapiens, UniProt P49137).
Chain of kinases (KINOMEscan panel) (Homo sapiens, UniProt P49137) (P49137 whole entry): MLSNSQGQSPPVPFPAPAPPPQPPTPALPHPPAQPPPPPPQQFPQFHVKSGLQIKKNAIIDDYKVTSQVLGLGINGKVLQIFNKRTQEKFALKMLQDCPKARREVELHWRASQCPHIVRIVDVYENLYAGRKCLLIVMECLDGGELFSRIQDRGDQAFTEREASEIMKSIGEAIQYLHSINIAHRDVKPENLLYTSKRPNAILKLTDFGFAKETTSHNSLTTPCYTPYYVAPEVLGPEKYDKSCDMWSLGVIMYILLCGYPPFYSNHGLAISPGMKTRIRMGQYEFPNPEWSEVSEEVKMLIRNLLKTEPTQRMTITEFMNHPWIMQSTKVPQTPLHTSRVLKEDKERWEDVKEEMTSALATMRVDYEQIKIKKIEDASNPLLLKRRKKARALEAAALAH
The target in assay [5] is T3, kinases (KINOMEscan panel) (Homo sapiens, UniProt Q9UQ88).
T3 sequence (Q9UQ88 1-783): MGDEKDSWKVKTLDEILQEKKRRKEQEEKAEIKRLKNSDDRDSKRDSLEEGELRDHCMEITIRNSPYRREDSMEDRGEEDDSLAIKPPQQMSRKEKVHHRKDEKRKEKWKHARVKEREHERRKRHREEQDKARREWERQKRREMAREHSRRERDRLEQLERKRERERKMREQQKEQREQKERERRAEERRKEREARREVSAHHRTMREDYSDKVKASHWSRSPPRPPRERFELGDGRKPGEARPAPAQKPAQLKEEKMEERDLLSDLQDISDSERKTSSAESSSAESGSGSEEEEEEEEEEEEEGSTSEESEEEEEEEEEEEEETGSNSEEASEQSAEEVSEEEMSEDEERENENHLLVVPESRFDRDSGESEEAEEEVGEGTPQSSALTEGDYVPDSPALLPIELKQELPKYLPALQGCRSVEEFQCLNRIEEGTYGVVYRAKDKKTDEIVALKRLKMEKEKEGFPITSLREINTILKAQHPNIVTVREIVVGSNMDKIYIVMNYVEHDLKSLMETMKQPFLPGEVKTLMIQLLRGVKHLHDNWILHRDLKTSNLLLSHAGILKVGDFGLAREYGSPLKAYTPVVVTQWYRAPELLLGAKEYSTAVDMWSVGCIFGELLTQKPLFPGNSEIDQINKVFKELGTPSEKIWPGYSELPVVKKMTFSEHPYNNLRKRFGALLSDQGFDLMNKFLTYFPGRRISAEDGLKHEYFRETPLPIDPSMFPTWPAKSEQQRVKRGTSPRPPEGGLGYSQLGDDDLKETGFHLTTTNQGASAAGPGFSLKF
The conditions noted are these: NEW KINOMEscan.

Like-named read-outs stand apart in the source and are kept apart here.

Consider `Cc1cccc(-c2nc(Nc3ccc4nn(C)cc4c3)c3ccccc3n2)n1` [NK167], for which the “KINOMEscan DDR2” value in assay [1] is given as 2. Also, in assay [2], the “KINOMEscan KIT(A829P)” value is on record as 0. Moreover, in assay [3], the “KINOMEscan TAOK2” value stood at 19. Further, the “KINOMEscan MAPKAPK2” value in assay [4] (kinase MAPKAPK2, NEW KINOMEscan) is 0. Also, the “KINOMEscan CDK11A” value in assay [5] came out at 24.
On to `Cc1cccc(-c2nc(N(C)c3ccc4ncsc4c3)c3ccccc3n2)n1` [NK-161], for which the “KINOMEscan DDR2” value in assay [1] is 1. Also, the “KINOMEscan KIT(A829P)” value in assay [2] was 19. Further, in assay [3], the “KINOMEscan TAOK2” value is reported as 20. The “KINOMEscan MAPKAPK2” value in assay [4] is reported as 0. Further, in assay [5], the “KINOMEscan CDK11A” value amounted to 25.

The record behind these values is paper PMC9851200, “Multiparameter phenotypic screening for endogenous TFEB and TFE3 translocation identifies novel chemical series modulating lysosome function” (Autophagy, 2022).
